Experimental data reported in patent EP4813993A1, “COMPOUND, PREPARATION METHOD THEREFOR, AND USE THEREOF” (Sichuan Kelun Pharmaceutical Research Institute Co., Ltd., priority 2023, dated 2025).

Legend:
Nav1.8 channels = molecular target: T1, Nav1.8 channels (Homo sapiens, UniProt Q9Y5Y9); experiment: Manual patch-clamp, current of stably overexpressed Nav1.8 channels (resting state voltage program); format: cell-based
T1 construct: expressed in transfected cells
Method in brief: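 Whole-cell manual patch clamp on cells stably overexpressing Nav1.8, held at -120 mV and stepped to 0 mV for 50 ms every 20 s (resting-state protocol). Compounds were perfused in ascending concentrations, each for 5 min or until stable; block of peak current was calculated at steady state.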

[1] = Pharmacokinetic study in ICR mice; format: in vivo; conditions: male, mouse, plasma
[2] = system: CFA-induced rat inflammatory pain model; experiment: CFA-induced rat inflammatory pain model, Von Frey test; format: in vivo, SD rats
Method: Experimental Example 9: Pharmacodynamic effect study of compounds in CFA-induced rat inflammatory pain model Experimental animals: SD rats, male, 180-220 g.
Compound preparation: 5% (final preparation volume) of DMSO was added to dissolve the test compound, and then 10% (final preparation volume) of Cremophor EL and 85% Saline were sequentially added; an appropriate amount of Celecoxib was weighed, 5% (final preparation volume) of DMSO was added to dissolve the test compound, and then 5% (final preparation volume) of HS-15 and 90% Saline were sequentially added.
SD rats were anesthetized with isoflurane. The right hind paw was disinfected, a needle was inserted subcutaneously at the posterior plantar aspect, and 50 µL of complete Freund's adjuvant (CFA, 1 mg/mL) was administered via subcutaneous injection at the midplantar region, with the needle withdrawn slowly while rotating to prevent leakage. After modeling, local redness and swelling of the soles of the feet, difficulty in walking, and lifting of the affected feet were observed.
2. Administration and test
The Von Frey test was performed once before the surgery. On the second day after animal modeling, animals meeting the baseline requirements were selected for enrollment. The animals were randomly divided into 6 groups based on the 50% PWT values, with 10 animals per group. Administration was performed under a double-blind test protocol. The 50% PWT of the animals was measured separately before administration (baseline) and at 0.5 h, 2 h, and 8 h after administration. The model control group was given normal saline, while the compound groups were given the compounds according to the administration doses in the table below.

T1 sequence (Q9Y5Y9 whole entry): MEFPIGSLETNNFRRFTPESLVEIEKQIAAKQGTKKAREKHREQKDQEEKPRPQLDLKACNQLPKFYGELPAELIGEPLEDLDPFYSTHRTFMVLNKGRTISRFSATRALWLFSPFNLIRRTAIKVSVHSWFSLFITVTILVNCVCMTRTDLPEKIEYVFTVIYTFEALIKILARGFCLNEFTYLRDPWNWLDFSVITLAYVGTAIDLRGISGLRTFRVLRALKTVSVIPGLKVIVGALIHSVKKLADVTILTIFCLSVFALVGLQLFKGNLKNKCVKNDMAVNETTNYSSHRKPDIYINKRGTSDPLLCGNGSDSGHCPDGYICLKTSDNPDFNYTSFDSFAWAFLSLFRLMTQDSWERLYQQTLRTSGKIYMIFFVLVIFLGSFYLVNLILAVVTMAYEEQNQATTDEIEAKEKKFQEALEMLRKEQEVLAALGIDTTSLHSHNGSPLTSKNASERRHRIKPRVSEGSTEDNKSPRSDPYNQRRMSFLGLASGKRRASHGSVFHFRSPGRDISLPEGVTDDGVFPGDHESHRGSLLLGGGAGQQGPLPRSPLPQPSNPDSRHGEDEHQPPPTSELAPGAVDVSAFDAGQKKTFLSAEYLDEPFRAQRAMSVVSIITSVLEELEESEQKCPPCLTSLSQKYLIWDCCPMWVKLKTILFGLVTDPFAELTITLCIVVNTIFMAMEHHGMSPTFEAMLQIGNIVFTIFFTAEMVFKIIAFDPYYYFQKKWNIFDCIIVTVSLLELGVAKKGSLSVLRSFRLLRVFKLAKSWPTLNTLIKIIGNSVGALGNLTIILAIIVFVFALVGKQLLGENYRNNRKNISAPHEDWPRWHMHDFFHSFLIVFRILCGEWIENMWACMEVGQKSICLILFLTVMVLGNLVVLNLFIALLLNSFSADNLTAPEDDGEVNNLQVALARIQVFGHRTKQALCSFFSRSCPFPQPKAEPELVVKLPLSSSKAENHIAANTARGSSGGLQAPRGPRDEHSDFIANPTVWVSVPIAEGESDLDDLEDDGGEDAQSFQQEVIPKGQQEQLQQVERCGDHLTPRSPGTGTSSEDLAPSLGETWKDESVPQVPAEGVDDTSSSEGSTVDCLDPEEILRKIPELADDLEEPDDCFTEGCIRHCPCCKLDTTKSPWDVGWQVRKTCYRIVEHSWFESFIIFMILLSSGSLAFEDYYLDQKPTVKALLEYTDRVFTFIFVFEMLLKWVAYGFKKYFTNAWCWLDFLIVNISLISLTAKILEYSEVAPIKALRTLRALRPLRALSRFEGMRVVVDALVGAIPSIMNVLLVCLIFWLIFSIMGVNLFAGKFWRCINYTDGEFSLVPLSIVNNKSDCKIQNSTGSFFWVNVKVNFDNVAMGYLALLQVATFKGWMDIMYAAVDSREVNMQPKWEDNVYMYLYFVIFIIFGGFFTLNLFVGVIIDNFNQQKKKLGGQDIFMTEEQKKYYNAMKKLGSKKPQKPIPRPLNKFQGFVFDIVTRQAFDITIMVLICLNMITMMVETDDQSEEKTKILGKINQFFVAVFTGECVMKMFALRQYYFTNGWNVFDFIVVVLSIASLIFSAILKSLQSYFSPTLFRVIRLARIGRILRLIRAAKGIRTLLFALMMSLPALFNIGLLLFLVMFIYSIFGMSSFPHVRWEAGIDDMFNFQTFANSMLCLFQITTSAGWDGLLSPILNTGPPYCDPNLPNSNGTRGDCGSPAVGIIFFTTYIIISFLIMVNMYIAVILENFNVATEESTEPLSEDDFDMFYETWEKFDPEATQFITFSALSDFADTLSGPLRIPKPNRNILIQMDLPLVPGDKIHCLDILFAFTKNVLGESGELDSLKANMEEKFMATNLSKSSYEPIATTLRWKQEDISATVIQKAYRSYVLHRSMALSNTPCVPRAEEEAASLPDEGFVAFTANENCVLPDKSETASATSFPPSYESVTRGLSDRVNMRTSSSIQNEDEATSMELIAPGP

## COc1c(C2CC(C)(C(F)(F)F)SC2C(=O)Nc2ccnc(C(N)=O)c2)ccc(F)c1F (single isomer, unassigned) [Compound 139-A, 4-(3-(3,4-difluoro-2-methoxyphenyl)-5-methyl-5-(trifluoromethyl)tetrahydrothiophene-2-carboxamido)picolinamide]
Nav1.8 channels
  IC50: 60 pM
Nav1.8 channels; concentration of 10 nM, 0.01 µM
  Inhibition rate (%): 95.31%
[1]; Oral administration (p.o.), 20 mg/kg
  AUC(0-inf): 24800 ng·h/mL
[1]; iv, Injection (i.v.), 2 mg/kg
  AUC(0-inf): 3080 ng·h/mL
[2]; CFA-induced rat inflammatory pain model
  analgesic activity compared with the positive control Celecoxib: superior to the positive control Celecoxib
[2]; SD rats CFA, 125 mg/kg group, baseline before administration, Mean + SEM, n = 10
  PWT 50% value (g) Post-surgery, Preadministration: 3.1 ± 1.12 g
[2]; SD rats CFA, 125 mg/kg group, baseline before modeling, Mean + SEM, n = 10
  PWT 50% value (g) Pre-surgery: 12.61 ± 3.5 g
[2]; SD rats CFA, 125 mg/kg, 0.5 h after administration, Mean + SEM, n = 10
  PWT 50% value (g) Time 0.5 h: 6.78 ± 5.47 g
[2]; SD rats CFA, 125 mg/kg, 2 h after administration, Mean + SEM, n = 10
  PWT 50% value (g) Time 2 h: 6.54 ± 3.06 g
[2]; SD rats CFA, 125 mg/kg, 8 h after administration, Mean + SEM, n = 10
  PWT 50% value (g) Time 8 h: 3.6 ± 1.5 g
[2]; SD rats CFA, 125 mg/kg, Mean + SEM, n = 10
  PWT 50% value (g) AUC0-8h: 40.83 ± 12.03 g
